Measurements published in ChEMBL document CHEMBL1201862, “PubChem BioAssay data set” (2004).
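Method: 48-hour compound exposure of cells in 96-well plates, five concentrations, linear interpolation of endpoints. GI50 is the concentration that inhibits growth by half.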 Activity calls are given as the source filed them. No stated cut-off is given here; in the data, active = GI50 up to about 1.1 µM and inactive = higher.

Key:
Test in all cases: NCI anticancer screen, dose series, 48 h
[1] = test system: T47D
[2] = test system: Malme-3M
[3] = test system: 786-0
[4] = test system: HOP-62
[5] = test system: SN12C
[6] = test system: NCI-H23
[7] = test system: U-251
[8] = test system: NCI/ADR-RES
[9] = test system: HCT-15
[10] = test system: UO-31
[11] = test system: KM12
[12] = test system: K562
[13] = test system: NCI-H522
[14] = test system: UACC-257
[15] = test system: SK-MEL-28
[16] = test system: COLO 205
[17] = test system: SF-268
[18] = test system: PC-3
[19] = test system: MDA-MB-435
[20] = test system: A498

Row | Compound | GI50 [1] | GI50 [2] | GI50 [3] | GI50 [4] | GI50 [5] | GI50 [6] | GI50 [7] | GI50 [8] | GI50 [9] [µM] | GI50 [10] | GI50 [11] | GI50 [12] | GI50 [13] | GI50 [14] | GI50 [15] | GI50 [16] | GI50 [17] | GI50 [18] | GI50 [19] | GI50 [20]
1 | CCOC(=O)c1cc2cc(CSc3ccccc3)ccc2oc1=O | > 100 µM (inactive) | > 100 µM (inactive) | 94.8 µM (inactive) | 51.3 µM (inactive) | > 100 µM (inactive) | > 100 µM (inactive) | > 100 µM (inactive) | > 100 µM (inactive) | > 100 | 43.9 µM (inactive) | > 100 µM (inactive) | 82.2 µM (inactive) | > 100 µM (inactive) | > 100 µM (inactive) | > 100 µM (inactive) | > 100 µM (inactive) | > 100 µM (inactive) | 91.6 µM (inactive) | > 100 µM (inactive) | 
2 | COc1ccc(N2C(=O)C3c4[nH]c5ccc(C)cc5c4C4CCC(C)CC4C3C2=O)cc1 (stereo unspecified) |  | > 100 µM (inactive) | 25.7 µM (inactive) |  | > 100 µM (inactive) | 59 µM (inactive) | 53.7 µM (inactive) | 44.7 µM (inactive) | > 100 | > 100 µM (inactive) |  | 66.7 µM (inactive) | 92 µM (inactive) | > 100 µM (inactive) |  | > 100 µM (inactive) | 37.8 µM (inactive) | > 100 µM (inactive) | > 100 µM (inactive) | 21.6 µM (inactive)
3 | c1ccc(SCCP(CCP(c2ccccc2)c2ccccc2)c2ccccc2)cc1 (stereo unspecified) | 6.58 µM (inactive) | 11.5 µM (inactive) | 4.57 µM (inactive) | 8.2 µM (inactive) | 4.09 µM (inactive) | 2.95 µM (inactive) | 1.89 µM (inactive) | 34.4 µM (inactive) | 17.7 | 7.73 µM (inactive) | 2.1 µM (inactive) | 4.21 µM (inactive) |  | 11.7 µM (inactive) | 21.3 µM (inactive) | 8.77 µM (inactive) | > 25.5 µM (inactive) |  | 11.5 µM (inactive) | 
4 | CC(=O)Oc1cc(-c2oc3cc(OC(C)=O)c(C4OC(CO)C(O)C(O)C4O)c(OC(C)=O)c3c(=O)c2O)c(OC(C)=O)cc1O (stereo unspecified) |  | > 100 µM (inactive) | > 100 µM (inactive) | > 100 µM (inactive) | > 100 µM (inactive) | > 100 µM (inactive) | > 100 µM (inactive) | > 100 µM (inactive) | > 100 | > 100 µM (inactive) | > 100 µM (inactive) | > 100 µM (inactive) | 72.6 µM (inactive) | > 100 µM (inactive) |  | > 100 µM (inactive) |  | > 100 µM (inactive) | > 100 µM (inactive) | 
5 | COC(=O)/C=C\S/C(=C(/c1ccccc1)n1ccc(C(=O)OC)n1)c1ccccc1 | 24.5 µM (inactive) | 23.7 µM (inactive) | 12.4 µM (inactive) | 15.8 µM (inactive) | 37.5 µM (inactive) | 22.8 µM (inactive) | 13 µM (inactive) | 47.6 µM (inactive) | > 100 | 13.7 µM (inactive) | > 100 µM (inactive) | > 100 µM (inactive) | 24.5 µM (inactive) | 45.3 µM (inactive) | 28.6 µM (inactive) | > 100 µM (inactive) | 20.5 µM (inactive) | 16.7 µM (inactive) | 45.4 µM (inactive) | 
6 | CN(Cc1nc2c(N)nc(N)nc2nc1N)c1ccc(C(=O)NC(CCC(=O)O)C(=O)O)cc1 (stereo unspecified) | > 100 µM (inactive) |  | < 0.01 µM (active) | 0.231 µM (active) | 0.365 µM (active) | 0.544 µM (active) | 0.494 µM (active) | 0.225 µM (active) | 0.0708 | 0.561 µM (active) | > 100 µM (inactive) |  | > 33.6 µM (inactive) | 5.58 µM (inactive) | > 76.4 µM (inactive) | > 100 µM (inactive) | 0.299 µM (active) | < 0.01 µM (active) | 0.0277 µM (active) | 
7 | NC1CSc2ccccc2NC1=O (stereo unspecified) | > 100 µM (inactive) | > 100 µM (inactive) | > 100 µM (inactive) | > 100 µM (inactive) | > 100 µM (inactive) | > 100 µM (inactive) | > 100 µM (inactive) | > 100 µM (inactive) | > 100 | > 100 µM (inactive) | > 100 µM (inactive) | > 100 µM (inactive) | > 100 µM (inactive) | > 100 µM (inactive) | > 100 µM (inactive) | > 100 µM (inactive) | > 100 µM (inactive) | > 100 µM (inactive) | > 100 µM (inactive) | 
8 | CC12CCC(=O)[C@@]1(C)CCCC2=O (stereo partly specified) | > 100 µM (inactive) | > 100 µM (inactive) | > 100 µM (inactive) | > 100 µM (inactive) | > 100 µM (inactive) | > 100 µM (inactive) | > 100 µM (inactive) | > 100 µM (inactive) | > 100 | > 100 µM (inactive) | > 100 µM (inactive) | > 100 µM (inactive) | > 100 µM (inactive) | > 100 µM (inactive) | > 100 µM (inactive) | > 100 µM (inactive) | > 100 µM (inactive) | > 100 µM (inactive) |  | 
